Molecular target: T1, Kinesin-like protein KIF18A (Homo sapiens, UniProt Q8NI77)
T1 sequence (Q8NI77 whole entry): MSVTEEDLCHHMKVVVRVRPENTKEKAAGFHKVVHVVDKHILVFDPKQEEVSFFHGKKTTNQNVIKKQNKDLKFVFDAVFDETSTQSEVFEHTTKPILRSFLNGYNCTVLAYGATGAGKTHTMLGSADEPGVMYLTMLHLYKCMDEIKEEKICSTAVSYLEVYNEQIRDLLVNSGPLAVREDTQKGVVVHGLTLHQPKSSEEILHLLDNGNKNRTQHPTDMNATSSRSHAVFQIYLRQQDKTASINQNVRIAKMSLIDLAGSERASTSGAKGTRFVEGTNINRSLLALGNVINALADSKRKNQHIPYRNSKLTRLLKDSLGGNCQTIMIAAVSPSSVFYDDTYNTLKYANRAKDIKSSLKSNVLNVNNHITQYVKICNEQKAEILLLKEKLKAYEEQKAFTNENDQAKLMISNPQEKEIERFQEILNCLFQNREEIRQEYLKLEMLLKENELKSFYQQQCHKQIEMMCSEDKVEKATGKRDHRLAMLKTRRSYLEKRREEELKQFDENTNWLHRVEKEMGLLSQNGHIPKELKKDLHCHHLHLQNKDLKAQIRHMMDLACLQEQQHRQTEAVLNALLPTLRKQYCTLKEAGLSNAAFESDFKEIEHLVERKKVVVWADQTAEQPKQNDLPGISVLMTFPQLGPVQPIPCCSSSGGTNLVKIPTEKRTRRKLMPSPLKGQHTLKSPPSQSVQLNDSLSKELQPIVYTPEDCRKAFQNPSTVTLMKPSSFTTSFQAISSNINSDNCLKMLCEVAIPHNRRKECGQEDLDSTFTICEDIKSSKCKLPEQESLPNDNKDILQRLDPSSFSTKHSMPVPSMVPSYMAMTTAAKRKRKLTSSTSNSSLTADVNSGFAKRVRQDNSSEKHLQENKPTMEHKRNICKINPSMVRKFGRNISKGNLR
Test: Inhibition of recombinant His-tagged human KIF18A (1 to 467 residues) expressed in baculovirus expression system assessed as inhibition of microtubule-stimulated ATPase activity preincubated for 15 mins followed by ATP addition and further incubated for 15 mins and measured after 40 mins by ADP-Glo reagent based assay

IC50: 189 nM
Compound: CC(C)(C)NS(=O)(=O)c1cccc(NC(=O)c2ccc(N3CC[C@@H](O)C3)nc2N2CCC3(CC2)CC3)c1

— ChEMBL document CHEMBL5052846, “Pyridine derivatives as kif18a inhibitors” (2021)
